Experimental data as given in US9776995B2, “Bicyclic sulfonamide compounds as sodium channel inhibitors” (AMGEN INC., priority 2013, dated 2017).
Like-named read-outs stand apart in the source and are kept apart here. Each block holds one compound with its values, some of them ahead of it.

Target: Nav 1.7 (Homo sapiens (Human), UniProt Q15858)
Assay: in-vitro Nav 1.7 PX data
Assay type: cell-based

Sequence of Nav 1.7 (Q15858 whole entry): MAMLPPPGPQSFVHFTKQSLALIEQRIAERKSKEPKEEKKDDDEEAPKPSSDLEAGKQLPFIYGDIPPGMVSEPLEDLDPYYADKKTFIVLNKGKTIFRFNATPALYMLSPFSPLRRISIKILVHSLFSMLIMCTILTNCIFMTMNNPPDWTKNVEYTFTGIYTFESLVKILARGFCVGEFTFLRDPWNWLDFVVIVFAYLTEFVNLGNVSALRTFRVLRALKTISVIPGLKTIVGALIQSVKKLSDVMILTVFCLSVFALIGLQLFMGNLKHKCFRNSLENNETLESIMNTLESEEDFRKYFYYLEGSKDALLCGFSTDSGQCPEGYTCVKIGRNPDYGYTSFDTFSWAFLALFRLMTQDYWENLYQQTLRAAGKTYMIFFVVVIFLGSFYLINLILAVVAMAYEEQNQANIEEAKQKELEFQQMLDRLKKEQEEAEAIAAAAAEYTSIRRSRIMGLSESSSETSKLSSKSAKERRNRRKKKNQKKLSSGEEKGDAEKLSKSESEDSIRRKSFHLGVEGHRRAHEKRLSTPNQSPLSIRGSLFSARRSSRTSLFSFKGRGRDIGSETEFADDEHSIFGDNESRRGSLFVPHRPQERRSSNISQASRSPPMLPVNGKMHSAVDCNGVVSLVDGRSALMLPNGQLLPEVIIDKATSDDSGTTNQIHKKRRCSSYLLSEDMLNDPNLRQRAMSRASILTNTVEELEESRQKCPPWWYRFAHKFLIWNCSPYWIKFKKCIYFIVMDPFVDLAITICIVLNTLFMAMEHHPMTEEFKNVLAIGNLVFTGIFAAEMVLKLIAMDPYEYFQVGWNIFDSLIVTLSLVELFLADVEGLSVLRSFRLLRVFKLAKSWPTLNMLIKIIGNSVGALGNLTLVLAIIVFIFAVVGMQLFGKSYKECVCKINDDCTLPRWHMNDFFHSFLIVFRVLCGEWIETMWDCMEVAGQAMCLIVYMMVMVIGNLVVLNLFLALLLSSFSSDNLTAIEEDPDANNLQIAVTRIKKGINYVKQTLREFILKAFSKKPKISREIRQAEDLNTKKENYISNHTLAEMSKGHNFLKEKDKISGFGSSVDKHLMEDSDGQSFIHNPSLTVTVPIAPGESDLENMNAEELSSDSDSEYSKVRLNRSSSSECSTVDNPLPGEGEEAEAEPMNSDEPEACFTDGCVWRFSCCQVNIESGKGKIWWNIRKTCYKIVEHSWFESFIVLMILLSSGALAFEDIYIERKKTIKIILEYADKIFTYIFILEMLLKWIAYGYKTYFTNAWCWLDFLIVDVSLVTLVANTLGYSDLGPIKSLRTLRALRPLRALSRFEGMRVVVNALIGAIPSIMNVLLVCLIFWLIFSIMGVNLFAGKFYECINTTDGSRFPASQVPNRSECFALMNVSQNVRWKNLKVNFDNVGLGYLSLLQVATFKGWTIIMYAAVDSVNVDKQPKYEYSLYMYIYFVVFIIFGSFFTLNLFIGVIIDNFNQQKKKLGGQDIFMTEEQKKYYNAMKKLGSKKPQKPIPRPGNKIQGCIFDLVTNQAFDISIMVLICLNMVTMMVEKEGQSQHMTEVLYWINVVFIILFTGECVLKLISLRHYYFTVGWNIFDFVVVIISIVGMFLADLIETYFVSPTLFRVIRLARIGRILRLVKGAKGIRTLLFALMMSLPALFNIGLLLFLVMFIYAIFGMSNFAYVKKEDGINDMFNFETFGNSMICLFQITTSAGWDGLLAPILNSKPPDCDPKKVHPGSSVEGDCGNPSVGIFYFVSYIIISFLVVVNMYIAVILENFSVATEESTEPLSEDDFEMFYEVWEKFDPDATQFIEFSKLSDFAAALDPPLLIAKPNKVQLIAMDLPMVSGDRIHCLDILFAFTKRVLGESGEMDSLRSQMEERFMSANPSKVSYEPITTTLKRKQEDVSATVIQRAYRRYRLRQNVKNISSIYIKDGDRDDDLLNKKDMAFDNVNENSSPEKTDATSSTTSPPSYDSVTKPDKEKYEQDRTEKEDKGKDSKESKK

Compound: COc1cc(-c2cccc(Cl)c2)c(F)cc1-c1nccc2cc(S(=O)(=O)Nc3ncccn3)ccc12 [Example 97, 1-(3′-chloro-2-fluoro-5-methoxy-4-biphenylyl)-N-2-pyrimidinyl-6-isoquinolinesulfonamide]
IC50 (PatchXpress (PX), in vitro): 111 nM

Compound: COc1cc(N2CC(F)(F)C2)c(C#N)cc1-c1nccc2cc(S(=O)(=O)Nc3ccon3)ccc12 [Example 23, 1-(5-CYANO-4-(3,3-DIFLUOROAZETIDIN-1-YL)-2-METHOXYPHENYL)-N-(ISOXAZOL-3-YL)ISOQUINOLINE-6-SULFONAMIDE]
IC50: 988 nM

Compound: COc1ccc(-c2ccc(-c3nccc4cc(S(=O)(=O)Nc5nncs5)ccc34)c(OC)c2)c(F)n1 [Example 196, 1-(4-(2-fluoro-6-methoxy-3-pyridinyl)-2-methoxyphenyl)-N-1,3,4-thiadiazol-2-yl-6-isoquinolinesulfonamide]
IC50 (in-vitro PX (PatchXpress) data): 1050 nM

Compound: COc1nc(NCC(C)(C)C)ccc1-c1nccc2cc(S(=O)(=O)Nc3ccncn3)ccc12 [Example 47, 1-(2-METHOXY-6-(NEOPENTYLAMINO)PYRIDIN-3-YL)-N-(PYRIMIDIN-4-YL)ISOQUINOLINE-6-SULFONAMIDE]
IC50 (PatchXpress (PX), in vitro): 899 nM

Compound: COc1cc(N2CC(F)(F)C2)c(C#N)cc1-c1nccc2cc(S(=O)(=O)Nc3nncs3)ccc12 [Example 24, 1-(5-CYANO-4-(3,3-DIFLUOROAZETIDIN-1-YL)-2-METHOXYPHENYL)-N-(1,3,4-THIADIAZOL-2-YL)ISOQUINOLINE-6-SULFONAMIDE]
IC50 (in-vitro PX): 1360 nM

Compound: COc1cc(Br)c(Cl)cc1-c1nccc2cc(S(=O)(=O)Nc3ccon3)ccc12 [Example 117, 1-(4-bromo-5-chloro-2-methoxyphenyl)-N-3-isoxazolyl-6-isoquinolinesulfonamide]
IC50 (in-vitro PX data): 108 nM

Compound: COc1cc(-c2cccc(F)c2)ccc1-c1n[nH]c(=O)c2cc(S(=O)(=O)Nc3nncs3)ccc12 [Example 18, 1-(3′-FLUORO-3-METHOXY-[1,1′-BIPHENYL]-4-YL)-4-OXO-N-(1,3,4-THIADIAZOL-2-YL)-3,4-DIHYDROPHTHALAZINE-6-SULFONAMIDE]
IC50 (in-vitro PX (PatchXpress) data): 1420 nM

Compound: COc1cc(Oc2ccc(F)c(C)c2)ccc1-c1nccc2cc(S(=O)(=O)Nc3ccncn3)ccc12 [Example 29, 1-(4-(4-FLUORO-3-METHYLPHENOXY)-2-METHOXYPHENYL)-N-(PYRIMIDIN-4-YL)ISOQUINOLINE-6-SULFONAMIDE]
IC50 (in-vitro Nav 1.7 PX data): 1580 nM

The remaining lines, values ahead:

IC50 (in-vitro Nav 1.7 PX data): 9110 nM
Compound: COc1cc(C#N)c(-c2cc(F)cc(F)c2)cc1-c1nccc2cc(S(=O)(=O)Nc3ccncn3)ccc12 [Example 145, 1-(6-cyano-3′,5′-difluoro-4-methoxy-3-biphenylyl)-N-4-pyrimidinyl-6-isoquinolinesulfonamide]

IC50 (in-vitro PX data): 1280 nM
Compound: COc1nsc(NS(=O)(=O)c2ccc3c(-c4ccc(-c5cc(F)cc(F)c5)cc4OC)nccc3c2)n1 [Example 134, 1-(3′,5′-difluoro-3-methoxy-4-biphenylyl)-N-(3-methoxy-1,2,4-thiadiazol-5-yl)-6-isoquinolinesulfonamide]

IC50 (in-vitro PX): 14.5 nM
Compound: COc1cc(-c2cc(F)cc(F)c2)c(Cl)cc1-c1ncnc2cc(S(=O)(=O)Nc3ccon3)ccc12 [Example 206, 4-(2-chloro-3′,5′-difluoro-5-methoxy-4-biphenylyl)-N-3-isoxazolyl-7-quinazolinesulfonamide]

IC50 (in-vitro PX data): 11200 nM
Compound: COc1cc(-c2cc(F)cc(F)c2)ccc1-c1nccc2cc(S(=O)(=O)NC(C)=O)ccc12 [Example 136, N-((1-(3′,5′-difluoro-3-methoxy-4-biphenylyl)-6-isoquinolinyl)sulfonyl)acetamide]

IC50 (in-vitro PX data): 73.9 nM
Compound: COc1cc(-c2ccc(Cl)c(F)c2)c(Cl)cc1-c1nccc2cc(S(=O)(=O)Nc3ccon3)ccc12 [Example 101, 1-(2,4′-dichloro-3′-fluoro-5-methoxy-4-biphenylyl)-N-3-isoxazolyl-6-isoquinolinesulfonamide]

IC50 (in-vitro Nav 1.7 PX data): 3220 nM
Compound: COc1cc(-c2cc(F)cc(F)c2)ccc1-c1nccc2cc(S(=O)(=O)Nc3ncc(C(F)(F)F)o3)ccc12 [Example 143, 1-(3′,5′-difluoro-3-methoxy-4-biphenylyl)-N-(5-(trifluoromethyl)-1,3-oxazol-2-yl)-6-isoquinolinesulfonamide]
